Test results published in patent publication US20250073354A1, “COMPOSITIONS AND METHODS FOR DELIVERY OF AGENTS TO INNER EAR” (University of Rochester, priority 2021, published 2025).
Entries after “also recorded” stand apart in the source; their conditions may differ.

Tests used:
[1] = CT time series of CSF tracer transport to the cochlea after intracisternal infusion; assay type: in vivo, mouse
Experimental: During the CM cannulation procedure a custom-made head bar was fixed on the top of the animal skull. The head bar was designed to minimize undesired movements during the image acquisition (Yoshida et al., 2016), and fixed to an animal holder. […] Animal's respiration was monitored by using Biovet software. CT scans were performed with the Vector4CT system (MILabs, Utrecht, Netherlands) and scanning of the entire mouse head was performed in 4.56 min at an isotropic spatial resolution of 20 μm. The time series CT scanning protocol comprised one baseline scan (4.5 min) followed by intracisternal infusion of Omnipaque (350 mg I/ml, 1 μL/min, 10 μL, GE healthcare). Scans continued over 6 measurements (30 min) after intracisternal infusion of Omnipaque.
The time-intensity data was extracted using ITK snap with the ROIs described above after background subtraction and then normalized to maximal cisterna magna intensity. Dimensions of cochlear aqueduct were measured using the #X feature in ITK snap for #four animals. Distances between ROIs were calculated using their spatial coordinates.
To solve the equation (#ref), inventors implemented a simple finite difference scheme in Python (#ref) using NumPy and Scipy (#ref). Estimation of the dispersion coefficient was achieved by minimizing the L2-norm prediction error, using Scipy (#ref) E: […]

[2] = mouse, in vivo
Experimental: Briefly, mice were anesthetized with a mixture of Ketamine/Xylazine (100 mg/kg, 10 mg/kg, respectively), after depth of anesthesia was confirmed by the cessation of reflexes, the incision area was properly shaved and sterilized with the aid of ethanol 70% swabs (Vitrex Medical A/S Herlev, DK), followed by iodine solution (Povidone Iodine 7,5% Henry Schein, Melville, NY, USA) applicated using cotton swabs. Before the onset of surgery, analgesics were applied, Lidocaine (0.05 ml, 0.2 mg/ml) was applied in the incision site and Buprenorphine (0.05 mg/kg) injected subcutaneously for post-surgical analgesia. After performing the skin incision around the occipital crest, the neck muscles were separated to reveal the CM underneath. […]
Immediately after the CM cannulation procedure, animals were moved to MRI scanner and head movement during scanning was minimized by restraining the animals on an MR-compatible stereotactic holder with ear bars. Body temperature was maintained at 37±0.5° C. with a thermostatically controlled waterbed and monitored, along with the respiratory rate by an MR compatible remote monitoring system (SA Instruments, NY, USA). […] Every 3D-CISS image was calculated as a maximum intensity projection from 4 realigned 3D-TrueFISP volumes with 4 orthogonal phase encoding directions (TR/TE 3.9/1.95 ms, Nex 2, FA 50°, FOV 19.2×12.8×12.8 mm, Matrix 192×128×128, BW 150 kHz). […]
Both DCE-MRI and CT time series data were motion corrected using Advanced Normalization Tools (ANTs ver.2.1.0) (Avants et al., 2008; Avants et al., 2011). Motion corrected time series in MRI images were converted into percent change from baseline-time series, calculated as the percent signal change from the averaged signal of baseline images.

Row | SMILES | Tracer concentration in scala vestibuli or cochlear nerve ([1]; during the 30 min of scanning) | Tracer distribution to scala tympani ([1]; intracisternal delivery, continuous CT scanning) | Time activity curves for tracer influx in mice lacking aqp4 [2] | Time to reach 50 max [2] | Tracer distribution to cochlea [2]
1 | CC(=O)N(CC(O)CO)c1c(I)c(C(=O)NCC(O)CO)c(I)c(C(=O)NCC(O)CO)c1I (centres unmarked) [Omnipaque] | No clear rise; also recorded: no significant tracer arrives | reaches the base and middle region of the scala tympani |  |  | 
2 | O=C([O-])CN1CCN(CC(=O)[O-])CCN([C@H](CO)[C@H](O)CO)CCN(CC(=O)[O-])CC1.[Gd+3] (racemic) [Gadovist, gadobutrol] |  |  | did not differ from wild type animals | significantly higher in the cochlea | reaches the cochlea
